Patent US20100120921A1, “RENIN INHIBITORS FOR TREATMENT OF HYPERTENSION IN PATIENTS WITH HIGH SODIUM DIET” (NOVARTIS AG, priority 2007, published 2010)
Entries after “also recorded” stand apart in the source; their conditions may differ.

System: patients with systolic hypertension
Test: 12-week randomized, open-label, multi-center, cross-over clinical study of aliskiren 300 mg on high versus low sodium diet (24-hour ABPM)
Assay type: in vivo, human
Details: aliskiren 300 mg once daily; 4 weeks high sodium (≧200 mmol/day) vs 4 weeks low sodium (≦100 mmol/day) diet; non-inferiority margin 4 mmHg
Description: The effect of Aliskiren (300 mg) on reduction in mean 24-hour ambulatory blood pressure systolic hypertensive patients using low and high sodium diets is examined in a 12-week, randomized, open-label, multi-center, cross-over study. Subjects with systolic hypertension have a 2-4 week washout of their current antihypertensive medications. Patients who meet 8-hour ABPM criteria at week 0 (ABPM mean daytime systolic blood pressure ≧135 mmHg and <160 mmHg) are randomized to either a high sodium (≧200 mmol/day) or low sodium (≦100 mmol/day) diet and will be dispensed aliskiren 300 mg.
After 2 and 4 weeks on the assigned sodium level diet, 24-hour urine (Bentley, Brook 2006) collections for sodium and creatinine are collected and measured to confirm adherence to the diet. After 4 weeks on the assigned sodium level diet, 24-hour ABPM is measured. Patients are then crossed over to the other level sodium diet. Those patients who had high sodium diet for the first four weeks start having low sodium diet for the next 4 weeks and vice versa. After 2 and 4 weeks on the new diet, 24-hour urine collections for sodium and creatinine are again collected and measured to confirm adherence to the diet. After 4 weeks on the newly assigned sodium level diet, 24-hour ABPM are measured. […]

## COCCCOc1cc(C[C@@H](C[C@H](N)[C@@H](O)C[C@H](C(=O)NCC(C)(C)C(N)=O)C(C)C)C(C)C)ccc1OC [aliskiren, 2(S),4(S),5(S),7(S)—N-(3-amino-2,2-dimethyl-3-oxopropyl)-2,7-di(1-methylethyl)-4-hydroxy-5-amino-8-[4-methoxy-3-(3-methoxy-propoxy)phenyl]-octanamide]
  antihypertensive effect (change in mean 24-hour ambulatory blood pressure) on high versus low sodium diet: the same (within the BP boundaries indicated) regardless of whether the subject ingests a high or a low sodium diet; also recorded: reduce blood pressure efficiently irrespective of the sodium intake
